# In patent publication US20240174622A1, “COMPOUND AND RADIOACTIVE LABELING COMPOUND” (NIHON MEDI-PHYSICS CO., LTD., priority 2021, published 2024):
# Assays:
# [1] = tested on: LNCaP tumor-transplanted mouse; test: Internal radioactivity distribution using LNCaP tumor-transplanted mouse; type: in vivo
# Protocol: (§1) The animal test was performed in compliance with the guidelines of Kyoto University Animal Experiment Committee. Male CB17/IcrJcl-Prkdc^scid mice were purchased from CLEA Japan, Inc. The animals were kept under 12 h/12 h, day/night cycle conditions and fed ad libitum with food and water. LNCaP cells (1.0×10^7 cells/mouse) or PC-3 cells (1.0×10^7 cells/mouse) were suspended in a mixture of PBS and Matrigel manufactured by Corning Life Sciences (1:1, 150 μL) and the suspension was subcutaneously transplanted to the right shoulder of mice under isoflurane anesthesia. Thereafter, the mice were kept for 40 to 60 days.
# LNCaP or PC-3 tumor-implanted mice were administered saline solutions (185 kBq, 100 μL) of [^111In]In-PSMA-DA1 or [^111In]In-PSMA-DB from the tail vein (n=3 each). Mice were euthanized 1, 4, 24, 48, 96, and 192 hours after administration. Thereafter, blood and each organ were recovered, and the mass and radioactivity of the organs were measured.
# The percentage (% ID) of the radioactivity amount to the administered radioactivity amount (injected dose) is shown as the value (% ID/g) divided by the blood mass or the organ mass (g).
# LNCaP tumor-implanted mice prepared by the same method as in Example 1-1 were administered a saline solution (241 kBq/100 μL) of [^111In]In-PtDA from the tail vein (n=3). Mice were euthanized 1, 24, and 48 hours after administration. Thereafter, blood and each organ were recovered, and the mass and radioactivity of the organs were measured.
# LNCaP tumor-implanted mice prepared by the same method as in Example 1-1 were administered a saline solution (259 kBq/100 μL each) of each of the radiolabeled compounds in Examples 3-1 to 3-3 or Comparative Examples 2-1 to 2-2 from the tail vein (n=2 to 3). Mice were euthanized 1, 4, 24, 48, 96, and 192 hours after administration. Thereafter, blood and each organ were recovered, and the mass and radioactivity of the organs were measured.
# as §1, with “LNCaP cells (4.3×10^6 cells/mouse) or” for “LNCaP cells (1.0×10^7 cells/mouse) or”, “PC-3 cells (3.3×10^6 cells/mouse) were” for “PC-3 cells (1.0×10^7 cells/mouse) were”, “shoulder of CB17/IcrJcl-Prkdc^scid mice under” for “shoulder of mice under”
# Mice were euthanized 1, 4, 24, 48, 96, and 192 hours after administration. Thereafter, blood and each organ were recovered, and the mass and radioactivity of the organs were measured.
# The results are shown in Table 12 (Mean value±standard deviation, n=3).
# [2] = target: human serum albumin (HSA) (Homo sapiens, UniProt P02768); test: Evaluation of binding to albumin (HSA solution, PBS control); conditions: left to stand in HSA solution (45 mg/mL)
# Protocol: Thereafter, the reaction liquids were added to a spin column (Sephadex G-100; manufactured by Cytiva), and centrifuged at 1500×g at 4° C. for 2 minutes. After separation, the radioactivity for each of the column and the eluate was measured with a gamma counter.
# When a compound to be evaluated binds to albumin to form a composite, the compound passes through the column because of the increased molecular size.
# As in Examples described above, PBS and human albumin were used to evaluate binding to albumin.
# Thereafter, the reaction liquid was added to a spin column (Sephadex G-50; manufactured by Cytiva), and centrifuged at 1500×g at 4° C. for 2 minutes. After separation, the radioactivity of the column and the eluate was measured with a gamma counter.
# Chain of human serum albumin (HSA) (P02768 25-609): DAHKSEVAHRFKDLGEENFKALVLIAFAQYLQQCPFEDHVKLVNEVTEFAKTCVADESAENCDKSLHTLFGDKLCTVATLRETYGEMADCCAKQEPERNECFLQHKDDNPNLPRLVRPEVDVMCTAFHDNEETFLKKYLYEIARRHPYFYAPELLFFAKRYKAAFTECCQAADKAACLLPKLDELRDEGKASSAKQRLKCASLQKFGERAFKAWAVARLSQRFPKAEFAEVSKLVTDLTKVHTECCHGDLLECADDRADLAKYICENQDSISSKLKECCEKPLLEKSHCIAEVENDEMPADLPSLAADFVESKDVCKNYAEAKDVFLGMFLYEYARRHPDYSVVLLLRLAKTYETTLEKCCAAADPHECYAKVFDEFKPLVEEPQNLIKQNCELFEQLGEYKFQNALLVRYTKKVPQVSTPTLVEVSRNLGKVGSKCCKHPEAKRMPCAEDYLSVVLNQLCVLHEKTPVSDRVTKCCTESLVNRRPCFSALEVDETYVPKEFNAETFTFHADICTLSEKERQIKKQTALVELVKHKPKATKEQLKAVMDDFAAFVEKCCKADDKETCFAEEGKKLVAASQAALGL
smiles,measurement,setting,value
"O=C([O-])CN(Cc1cccc(C(=O)[O-])n1)C[C@H](Cc1ccc(NC(=O)CCCCCNC(=O)CCC(=O)NCCCC[C@H](NC(=O)N[C@@H](CCC(=O)O)C(=O)O)C(=O)O)cc1)N(CC(=O)[O-])Cc1cccc(C(=O)[O-])n1.[111In+3] [[^111In]In-Octapa-1, reference compound]",Blood,[1]; 1 h after administration,0.48 ± 0.09 % ID/g
same,Brain,[1]; 1 h after administration,0.02 ± 0.00 % ID/g
same,Heart,[1]; 1 h after administration,0.32 ± 0.08 % ID/g
same,Intestine,[1]; 1 h after administration,0.40 ± 0.13 % ID/g
same,Kidney,[1]; 1 h after administration,322 ± 42.8 % ID/g
same,LNCaP Tumor,[1]; 1 h after administration,9.72 ± 1.65 % ID/g
same,Liver,[1]; 1 h after administration,0.36 ± 0.13 % ID/g
same,Lung,[1]; 1 h after administration,0.99 ± 0.22 % ID/g
same,Muscle,[1]; 1 h after administration,0.20 ± 0.01 % ID/g
same,Pancreas,[1]; 1 h after administration,0.62 ± 0.19 % ID/g
same,Spleen,[1]; 1 h after administration,10.9 ± 5.59 % ID/g
same,Stomach (% ID),[1]; 1 h after administration,0.08 ± 0.01 % ID
same,Blood,[1]; 4 h after administration,0.21 ± 0.18 % ID/g
same,Brain,[1]; 4 h after administration,0.02 ± 0.01 % ID/g
same,Heart,[1]; 4 h after administration,0.18 ± 0.03 % ID/g
same,Intestine,[1]; 4 h after administration,3.50 ± 1.21 % ID/g
same,Kidney,[1]; 4 h after administration,112 ± 54.6 % ID/g
same,LNCaP Tumor,[1]; 4 h after administration,4.73 ± 0.40 % ID/g
same,Liver,[1]; 4 h after administration,0.13 ± 0.02 % ID/g
same,Lung,[1]; 4 h after administration,0.23 ± 0.10 % ID/g
same,Muscle,[1]; 4 h after administration,0.10 ± 0.02 % ID/g
same,Pancreas,[1]; 4 h after administration,0.24 ± 0.07 % ID/g
same,Spleen,[1]; 4 h after administration,3.55 ± 1.75 % ID/g
same,Stomach (% ID),[1]; 4 h after administration,0.37 ± 0.22 % ID
same,Blood,[1]; 24 h after administration,0.02 % ID/g
same,Brain,[1]; 24 h after administration,0.04 ± 0.04 % ID/g
same,Heart,[1]; 24 h after administration,0.04 ± 0.01 % ID/g
same,Intestine,[1]; 24 h after administration,0.27 ± 0.08 % ID/g
same,Kidney,[1]; 24 h after administration,24.9 ± 10.9 % ID/g
same,LNCaP Tumor,[1]; 24 h after administration,2.00 ± 0.61 % ID/g
same,Liver,[1]; 24 h after administration,0.06 ± 0.01 % ID/g
same,Lung,[1]; 24 h after administration,0.13 ± 0.06 % ID/g
same,Muscle,[1]; 24 h after administration,0.01 ± 0.01 % ID/g
same,Pancreas,[1]; 24 h after administration,0.12 ± 0.03 % ID/g
same,Spleen,[1]; 24 h after administration,2.48 ± 1.44 % ID/g
same,Stomach (% ID),[1]; 24 h after administration,0.03 ± 0.01 % ID
same,Blood,[1]; 48 h after administration,0.00 ± 0.00 % ID/g
same,Brain,[1]; 48 h after administration,0.01 ± 0.00 % ID/g
same,Heart,[1]; 48 h after administration,0.02 ± 0.03 % ID/g
same,Intestine,[1]; 48 h after administration,0.52 ± 0.33 % ID/g
same,Kidney,[1]; 48 h after administration,7.48 ± 1.23 % ID/g
same,LNCaP Tumor,[1]; 48 h after administration,0.58 ± 0.11 % ID/g
same,Liver,[1]; 48 h after administration,0.04 ± 0.01 % ID/g
same,Lung,[1]; 48 h after administration,0.06 ± 0.02 % ID/g
same,Muscle,[1]; 48 h after administration,0.01 ± 0.02 % ID/g
same,Pancreas,[1]; 48 h after administration,0.05 ± 0.01 % ID/g
same,Spleen,[1]; 48 h after administration,1.64 ± 0.53 % ID/g
same,Stomach (% ID),[1]; 48 h after administration,0.07 ± 0.04 % ID
same,Blood,[1]; 96 h after administration,0.02 ± 0.01 % ID/g
same,Brain,[1]; 96 h after administration,0.01 ± 0.00 % ID/g
same,Heart,[1]; 96 h after administration,0.03 ± 0.00 % ID/g
same,Intestine,[1]; 96 h after administration,0.13 ± 0.05 % ID/g
same,Kidney,[1]; 96 h after administration,7.24 ± 3.00 % ID/g
same,LNCaP Tumor,[1]; 96 h after administration,0.72 ± 0.11 % ID/g
same,Liver,[1]; 96 h after administration,0.08 ± 0.02 % ID/g
same,Lung,[1]; 96 h after administration,0.09 ± 0.03 % ID/g
same,Muscle,[1]; 96 h after administration,0.03 ± 0.04 % ID/g
same,Pancreas,[1]; 96 h after administration,0.04 ± 0.00 % ID/g
same,Spleen,[1]; 96 h after administration,2.06 ± 0.88 % ID/g
same,Stomach (% ID),[1]; 96 h after administration,0.03 ± 0.01 % ID
same,Blood,[1]; 192 h after administration,0.00 % ID/g
same,Brain,[1]; 192 h after administration,0.01 % ID/g
same,Heart,[1]; 192 h after administration,0.01 % ID/g
same,Intestine,[1]; 192 h after administration,0.02 % ID/g
same,Kidney,[1]; 192 h after administration,2.16 % ID/g
same,LNCaP Tumor,[1]; 192 h after administration,0.36 % ID/g
same,Liver,[1]; 192 h after administration,0.05 % ID/g
same,Lung,[1]; 192 h after administration,0.04 % ID/g
same,Muscle,[1]; 192 h after administration,0.02 % ID/g
same,Pancreas,[1]; 192 h after administration,0.05 % ID/g
same,Spleen,[1]; 192 h after administration,0.85 % ID/g
same,Stomach (% ID),[1]; 192 h after administration,0.01 % ID
same,radioactivity in the eluate (in words),[2],low
